Experimental data as given in US10294202B2, “Pyrrolidinones as herbicides” (FMC Corporation, priority 2013, dated 2019).

Tests used:
barnyardgrass [1] = experiment: Test A pre-/postemergence herbicide test; format: in vivo, Echinochloa crus-galli
How it was run: (§1)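 Both application timings used compounds in a non-phytotoxic solvent plus surfactant. Pre-emergence: soil sprayed directly after seeding into loam/sand. Post-emergence: foliage of 2–10 cm seedlings (1–2 leaves) sprayed. Injury rated ~10 days later, 0–100.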

crabgrass, large = experiment: Test A pre-/postemergence herbicide test; format: in vivo, Digitaria sanguinalis
How it was run: as §1

giant foxtail = experiment: Test A pre-/postemergence herbicide test; format: in vivo, Setaria faberii
How it was run: as §1

morningglory = experiment: Test A pre-/postemergence herbicide test; format: in vivo, Ipomoea spp.
How it was run: as §1

pigweed = experiment: Test A pre-/postemergence herbicide test; format: in vivo, Amaranthus retroflexus
How it was run: as §1

velvetleaf = experiment: Test A pre-/postemergence herbicide test; format: in vivo, Abutilon theophrasti
How it was run: as §1

wheat = experiment: Test A pre-/postemergence herbicide test; format: in vivo, Triticum aestivum
How it was run: as §1

corn = experiment: Test A pre-/postemergence herbicide test; format: in vivo, Zea mays
How it was run: as §1

rice = experiment: Test B flooded paddy test; format: in vivo, Oryza sativa; conditions: 1000 g ai/ha, Flood; scale of 0 to 100 where 0 is no effect and 100 is complete control
How it was run: (§2)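 2-leaf plants; flood 3 cm over soil; compound into paddy water; depth held. Greenhouse 13–15 d. Visual rating vs controls, 0 (no effect) to 100 (complete control); dash = not tested.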

sedge, umbrella = experiment: Test B flooded paddy test; format: in vivo, Cyperus difformis; conditions: 1000 g ai/ha, Flood; scale of 0 to 100 where 0 is no effect and 100 is complete control
How it was run: as §2

ducksalad = experiment: Test B flooded paddy test; format: in vivo, Heteranthera limosa; conditions: 1000 g ai/ha, Flood; scale of 0 to 100 where 0 is no effect and 100 is complete control
How it was run: as §2

barnyardgrass [2] = experiment: Test B flooded paddy test; format: in vivo, Echinochloa crus-galli; conditions: 1000 g ai/ha, Flood; scale of 0 to 100 where 0 is no effect and 100 is complete control
How it was run: as §2

[3] = Postemergence, 1000 g ai/ha, 0 to 100 scale (0 no effect, 100 complete control)
[4] = Preemergence, 1000 g ai/ha, visual rating on 0 to 100 scale (0 no effect, 100 complete control), approx. 10 days
[5] = preemergence, 1000 g ai/ha, 0 to 100 scale
[6] = 125 g ai/ha, visual rating, 0 to 100 scale, 0 no effect, 100 complete control, approximately 10 days, preemergence
[7] = Postemergence, 125 g ai/ha, 0 to 100 scale, 0 no effect, 100 complete control
[8] = Postemergence, 500 g ai/ha, 0 to 100 scale (0 no effect, 100 complete control)
[9] = preemergence, 500 g ai/ha, 0 to 100 scale (0 no effect, 100 complete control)
[10] = preemergence, 500 g ai/ha, 0 to 100 scale

Cc1c(Cl)cccc1NC(=O)C1C(=O)NCC1c1ccc(F)c(F)c1 (racemic) [Compound 100]
Plant response rating, Barnyardgrass (barnyardgrass [1]; [3]): 80 | Plant response rating, Barnyardgrass (barnyardgrass [1]; [4]): 90 | Plant response rating, Crabgrass, Large (crabgrass, large; [3]): 90 | Plant response rating, Crabgrass, Large (crabgrass, large; [4]): 90 | Plant response rating, Foxtail, Giant (giant foxtail; [3]): 80 | Plant response rating, Foxtail, Giant (giant foxtail; [4]): 90 | Plant response rating, Morningglory (morningglory; [3]): 0 | Plant response rating, Morningglory (morningglory; [4]): 0 | Plant response rating, Pigweed (pigweed; [3]): 0 | Plant response rating, Pigweed (pigweed; [4]): 0 | Plant response rating, Velvetleaf (velvetleaf; [3]): 0 | Plant response rating, Velvetleaf (velvetleaf; [4]): 0 | Plant response rating, Wheat (wheat; [3]): 30 | Plant response rating, Wheat (wheat; [4]): 20 | Plant response rating, Corn (corn; [3]): 40 | Plant response rating, Corn (corn; [4]): 20 | Plant response rating, Rice (rice): 0 | Plant response rating, Sedge, Umbrella (sedge, umbrella): 0 | Plant response rating, Ducksalad (ducksalad): 75 | Plant response rating, Barnyardgrass (barnyardgrass [2]): 25

O=C1NCC(c2ccc(F)c(F)c2)C1C(=O)Nc1cccc(F)c1Cl (racemic) [Compound 108]
Plant response rating, Barnyardgrass (barnyardgrass [1]; [3]): 90 | Plant response rating, Barnyardgrass (barnyardgrass [1]; preemergence, 1000 g ai/ha, 0 to 100 scale (0 no effect, 100 complete control)): 90 | Plant response rating, Crabgrass, Large (crabgrass, large; [3]): 90 | Plant response rating, Crabgrass, Large (crabgrass, large; [5]): 90 | Plant response rating, Foxtail, Giant (giant foxtail; [3]): 80 | Plant response rating, Foxtail, Giant (giant foxtail; [5]): 90 | Plant response rating, Morningglory (morningglory; [3]): 10 | Plant response rating, Morningglory (morningglory; [5]): 0 | Plant response rating, Pigweed (pigweed; [3]): 0 | Plant response rating, Pigweed (pigweed; [5]): 0 | Plant response rating, Velvetleaf (velvetleaf; [3]): 10 | Plant response rating, Velvetleaf (velvetleaf; [5]): 0 | Plant response rating, Wheat (wheat; [3]): 0 | Plant response rating, Wheat (wheat; [5]): 0 | Plant response rating, Corn (corn; [3]): 0 | Plant response rating, Corn (corn; [5]): 0 | Plant response rating, Rice (rice): 0 | Plant response rating, Sedge, Umbrella (sedge, umbrella): 0 | Plant response rating, Ducksalad (ducksalad): 95 | Plant response rating, Barnyardgrass (barnyardgrass [2]): 50

O=C1NCC(c2ccc3ccccc3c2)C1C(=O)Nc1ccccc1F (racemic) [Compound 115]
Plant response rating, Barnyardgrass (barnyardgrass [1]; [6]): 0 | Plant response rating, Barnyardgrass (barnyardgrass [1]; [7]): 10 | Plant response rating, Barnyardgrass (barnyardgrass [1]; [8]): 50 | Plant response rating, Barnyardgrass (barnyardgrass [1]; [9]): 50 | Plant response rating, Crabgrass, Large (crabgrass, large; [6]): 70 | Plant response rating, Crabgrass, Large (crabgrass, large; [7]): 0 | Crabgrass, Large plant response rating (0 to 100 scale, 0 is no effect, 100 is complete control) (crabgrass, large; Postemergence, 500 g ai/ha): 50 | Plant response rating, Crabgrass, Large (crabgrass, large; [10]): 80 | Plant response rating, Foxtail, Giant (giant foxtail; [6]): 20 | Plant response rating, Foxtail, Giant (giant foxtail; [7]): 0 | Foxtail, Giant plant response rating (0 to 100 scale, 0 is no effect, 100 is complete control) (giant foxtail; Postemergence, 500 g ai/ha): 10 | Plant response rating, Foxtail, Giant (giant foxtail; [10]): 20 | Plant response rating, Morningglory (morningglory; [6]): 0 | Plant response rating, Morningglory (morningglory; [7]): 0 | Morningglory plant response rating (0 to 100 scale, 0 is no effect, 100 is complete control) (morningglory; Postemergence, 500 g ai/ha): 0 | Plant response rating, Morningglory (morningglory; [10]): 0 | Plant response rating, Pigweed (pigweed; [6]): 0 | Plant response rating, Pigweed (pigweed; [7]): 0 | Pigweed plant response rating (0 to 100 scale, 0 is no effect, 100 is complete control) (pigweed; Postemergence, 500 g ai/ha): 0 | Plant response rating, Pigweed (pigweed; [10]): 0 | Plant response rating, Velvetleaf (velvetleaf; [6]): 0 | Plant response rating, Velvetleaf (velvetleaf; [7]): 0 | Velvetleaf plant response rating (0 to 100 scale, 0 is no effect, 100 is complete control) (velvetleaf; Postemergence, 500 g ai/ha): 0 | Plant response rating, Velvetleaf (velvetleaf; [10]): 0 | Plant response rating, Wheat (wheat; [6]): 0 | Plant response rating, Wheat (wheat; [7]): 0 | Wheat plant response rating (0 to 100 scale, 0 is no effect, 100 is complete control) (wheat; Postemergence, 500 g ai/ha): 0 | Plant response rating, Wheat (wheat; [10]): 0 | Plant response rating, Corn (corn; [6]): 0 | Plant response rating, Corn (corn; [7]): 0 | Plant response rating, Corn (corn; [8]): 0 | Plant response rating, Corn (corn; [10]): 0 | Plant response rating, Rice (rice): 0 | Plant response rating, Sedge, Umbrella (sedge, umbrella): 0 | Plant response rating, Ducksalad (ducksalad): 90 | Plant response rating, Barnyardgrass (barnyardgrass [2]): 20

O=C1NCC(c2ccc3ccccc3c2)C1C(=O)Nc1cccc(F)c1F (racemic) [Compound 116]
Plant response rating, Barnyardgrass (barnyardgrass [1]; [6]): 0 | Plant response rating, Barnyardgrass (barnyardgrass [1]; [8]): 40 | Plant response rating, Barnyardgrass (barnyardgrass [1]; [9]): 50 | Plant response rating, Crabgrass, Large (crabgrass, large; [6]): 70 | Plant response rating, Crabgrass, Large (crabgrass, large; [7]): 20 | Crabgrass, Large plant response rating (0 to 100 scale, 0 is no effect, 100 is complete control) (crabgrass, large; Postemergence, 500 g ai/ha): 30 | Plant response rating, Crabgrass, Large (crabgrass, large; [10]): 80 | Plant response rating, Foxtail, Giant (giant foxtail; [6]): 0 | Plant response rating, Foxtail, Giant (giant foxtail; [7]): 0 | Foxtail, Giant plant response rating (0 to 100 scale, 0 is no effect, 100 is complete control) (giant foxtail; Postemergence, 500 g ai/ha): 20 | Plant response rating, Foxtail, Giant (giant foxtail; [10]): 30 | Plant response rating, Morningglory (morningglory; [6]): 0 | Plant response rating, Morningglory (morningglory; [7]): 0 | Morningglory plant response rating (0 to 100 scale, 0 is no effect, 100 is complete control) (morningglory; Postemergence, 500 g ai/ha): 0 | Plant response rating, Morningglory (morningglory; [10]): 0 | Plant response rating, Pigweed (pigweed; [6]): 0 | Plant response rating, Pigweed (pigweed; [7]): 0 | Pigweed plant response rating (0 to 100 scale, 0 is no effect, 100 is complete control) (pigweed; Postemergence, 500 g ai/ha): 0 | Plant response rating, Pigweed (pigweed; [10]): 0 | Plant response rating, Velvetleaf (velvetleaf; [6]): 0 | Plant response rating, Velvetleaf (velvetleaf; [7]): 0 | Velvetleaf plant response rating (0 to 100 scale, 0 is no effect, 100 is complete control) (velvetleaf; Postemergence, 500 g ai/ha): 0 | Plant response rating, Velvetleaf (velvetleaf; [10]): 0 | Plant response rating, Wheat (wheat; [6]): 0 | Plant response rating, Wheat (wheat; [7]): 0 | Wheat plant response rating (0 to 100 scale, 0 is no effect, 100 is complete control) (wheat; Postemergence, 500 g ai/ha): 0 | Plant response rating, Wheat (wheat; [10]): 0 | Plant response rating, Corn (corn; [6]): 0 | Plant response rating, Corn (corn; [7]): 0 | Plant response rating, Corn (corn; [8]): 20 | Plant response rating, Corn (corn; [10]): 0 | Plant response rating, Rice (rice): 15 | Plant response rating, Sedge, Umbrella (sedge, umbrella): 0 | Plant response rating, Ducksalad (ducksalad): 80 | Plant response rating, Barnyardgrass (barnyardgrass [2]): 20
